Data as given in patent publication US9657351B2, “MRNA-based gene expression for personalizing patient cancer therapy with an MDM2 antagonist” (Hoffmann-La Roche Inc., priority 2013, dated 2017).

Key:
Experiment in all cases: COMPOUND A In Vitro Assay
Format in all cases: cell-based
143B = conditions: Homo sapiens, Bone, TP53 Mutant
In short: (§1)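 The human cancer cell lines, spanning many tumour origins, were characterised by exome and RNA sequencing at baseline and then screened against the MDM2 antagonist COMPOUND A. Response is expressed as IC50.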

A-172 = conditions: Homo sapiens
In short: as §1

A-673 = conditions: Homo sapiens, A673, Muscle, TP53 Mutant
In short: as §1

BT-483 = conditions: Homo sapiens, Breast, mammary gland, TP53 Mutant
In short: as §1

CCRF-CEM = conditions: Homo sapiens, Lymphocyte T, peripheral blood, TP53 Mutant
In short: as §1

COLO 205 = conditions: Homo sapiens, Intestine, large, colon, TP53 Mutant
In short: as §1

Calu-6 = conditions: Homo sapiens, Lung, TP53 Mutant
In short: as §1

D-283MED = conditions: Homo sapiens, D283 Med, tissue NA, TP53 Wild type
In short: as §1

Daoy = conditions: Homo sapiens, Brain, cerebellum, TP53 Mutant
In short: as §1

HCC1187 = conditions: Homo sapiens, Breast, mammary gland, TP53 Mutant
In short: as §1

HCT-15 = conditions: Homo sapiens, Intestine, large, colon, TP53 Mutant
In short: as §1

Hs 38•T = conditions: Homo sapiens
In short: as §1

Huh-7 = conditions: Homo sapiens, Liver, TP53 Mutant
In short: as §1

KMM-1 = conditions: Homo sapiens, Lymphocyte, TP53 Mutant
In short: as §1

KMS-20 = conditions: Homo sapiens, Lymphocyte, TP53 Mutant
In short: as §1

LNCaP clone FGC = conditions: Homo sapiens
In short: as §1

MCF7 = conditions: Homo sapiens
In short: as §1

MDA-MB-468 = conditions: Homo sapiens, Breast, mammary gland, TP53 Mutant
In short: as §1

MOLM-13 = conditions: Homo sapiens
In short: as §1

NCI-H1568 = conditions: Homo sapiens, tissue NA, TP53 Mutant
In short: as §1

NCI-H1781 = conditions: Homo sapiens, Lung, TP53 Mutant
In short: as §1

NCI-H1838 = conditions: Homo sapiens, Lung, TP53 Mutant
In short: as §1

NCI-H2170 = conditions: Homo sapiens, Lung, TP53 Mutant
In short: as §1

NCI-H2228 = conditions: Homo sapiens, Lung, TP53 Mutant
In short: as §1

NCI-H28 = conditions: Homo sapiens
In short: as §1

NCI-H358 = conditions: Homo sapiens, Lung, bronchi, TP53 Mutant
In short: as §1

NCI-H596 = conditions: Homo sapiens, Lung, TP53 Mutant
In short: as §1

NUGC-3 = conditions: Homo sapiens, Stomach, TP53 Mutant
In short: as §1

NUGC-4 = conditions: Homo sapiens
In short: as §1

PA-1 = conditions: Homo sapiens
In short: as §1

PC-1 = conditions: Homo sapiens, tissue null, TP53 Wild type
In short: as §1

T-47D = conditions: Homo sapiens, T47D, Breast, mammary gland, TP53 Mutant
In short: as §1

WERI-Rb-1 = conditions: Homo sapiens
In short: as §1

Y79 = conditions: Homo sapiens
In short: as §1

`CCOc1cc(C(C)(C)C)ccc1C1=N[C@@](C)(c2ccc(Cl)cc2)[C@@](C)(c2ccc(Cl)cc2)N1C(=O)N1CCN(CCCS(C)(=O)=O)CC1` [COMPOUND A] was tested, and the IC50 (143B) was 15 µM, the IC50 (A-172; A 172, A-172, Brain, TP53 Wild type) was 0.58 µM and the IC50 (A-172; A 172, A-172 cells) was 0.6 µM. The IC50 (A-673) was 18 µM, the IC50 (BT-483) was 20 µM and the IC50 (CCRF-CEM) was 9.7 µM. For the same compound, the IC50 (COLO 205) was 9.1 µM, the IC50 (Calu-6) was 17 µM and the IC50 (D-283MED) was 1.2 µM. The IC50 (Daoy) was 9.7 µM, the IC50 (HCC1187) was 12 µM and the IC50 (HCT-15) was 7.6 µM. It also gave an IC50 (Hs 38•T; Hs 38•T cells) of 0.7 µM, an IC50 (Hs 38•T; Hs 38•T, Ovary, TP53 Wild type) of 0.73 µM and an IC50 (Huh-7) of 10 µM. The IC50 (KMM-1) was 19 µM, the IC50 (KMS-20) was 13 µM and the IC50 (LNCaP clone FGC; LNCaP clone FGC cells) was 0.2 µM. It also gave an IC50 (LNCaP clone FGC; LNCaP clone FGC, tissue NA, TP53 Wild type) of 0.17 µM, an IC50 (MCF7; MCF7, MCF7, Breast, mammary gland, TP53 Wild type) of 0.75 µM and an IC50 (MCF7; MCF7, MCF7 cells) of 0.8 µM. The IC50 (MDA-MB-468) was 10 µM, the IC50 (MOLM-13; MOLM-13, MOLM-13, Blood, TP53 Wild type) was 0.19 µM and the IC50 (MOLM-13; MOLM-13, MOLM-13 cells) was 0.2 µM. For the same compound, the IC50 (NCI-H1568) was 9.6 µM, the IC50 (NCI-H1781) was 8.8 µM and the IC50 (NCI-H1838) was 9.8 µM. The IC50 (NCI-H2170) was 12 µM, the IC50 (NCI-H2228) was 9.8 µM and the IC50 (NCI-H28; NCI-H28, NCI-H28, Mesothelioma, TP53 Wild type) was 0.46 µM. The IC50 (NCI-H28; NCI-H28, NCI-H28 cells) was 0.5 µM, the IC50 (NCI-H358) was 8.1 µM and the IC50 (NCI-H596) was 18 µM. The IC50 (NUGC-3) was 9.8 µM, the IC50 (NUGC-4; NUGC-4, NUGC-4, Stomach, TP53 Wild type) was 0.38 µM and the IC50 (NUGC-4; NUGC-4, NUGC-4 cells) was 0.4 µM. It also gave an IC50 (PA-1; PA-1, PA-1, Ovary, TP53 Wild type) of 0.62 µM, an IC50 (PA-1; PA-1, PA-1 cells) of 0.6 µM and an IC50 (PC-1) of 1.3 µM. The IC50 (T-47D) was 9.9 µM, the IC50 (WERI-Rb-1; WERI-Rb-1, Eye, retina, TP53 Wild type) was 0.67 µM and the IC50 (WERI-Rb-1; WERI-Rb-1 cells) was 0.7 µM. The IC50 (Y79; Y79, Y79, Eye, retina, TP53 Wild type) was 0.61 µM and the IC50 (Y79; Y79, Y79 cells) was 0.6 µM.
